Experimental data reported in patent publication US9315520B2, “2-amino-6-methyl-4,4a,5,6-tetrahydropyrano[3,4-d][1,3]thiazin-8a(8H)-yl-1,3-thiazol-4-yl amides” (Pfizer Inc., priority 2014, dated 2016).
Where a name gives a salt, the structure may show the parent alone.

Target: P-glycoprotein (MDR1-transfected MDCK cell line) (Homo sapiens (Human), UniProt P08183)
Assay: Pgp Liability MDR1 Er
Type: in vitro ADME
Details: MDR1-transfected MDCK cell line; ratio of permeability, Papp BA/AB
Source text: MDR1 Efflux Ratio (MDR Er) from MDR1-transfected MDCK line cell line represents the ratio of permeability, Papp BA/AB. Procedure utilized from (Feng, B.; Mills, J. B.; Davidson, R. E.; Mireles, R. J.; Janiszewski, J. S.; Troutman, M. D.; de Morais, S. M. In vitro P-glycoprotein assays to predict the in vivo interactions of P-glycoprotein with drugs in the central nervous system. Drug Metab. Dispos. 2008, 36, 268-275.

Sequence of P-glycoprotein (MDR1-transfected MDCK cell line) (P08183 whole entry): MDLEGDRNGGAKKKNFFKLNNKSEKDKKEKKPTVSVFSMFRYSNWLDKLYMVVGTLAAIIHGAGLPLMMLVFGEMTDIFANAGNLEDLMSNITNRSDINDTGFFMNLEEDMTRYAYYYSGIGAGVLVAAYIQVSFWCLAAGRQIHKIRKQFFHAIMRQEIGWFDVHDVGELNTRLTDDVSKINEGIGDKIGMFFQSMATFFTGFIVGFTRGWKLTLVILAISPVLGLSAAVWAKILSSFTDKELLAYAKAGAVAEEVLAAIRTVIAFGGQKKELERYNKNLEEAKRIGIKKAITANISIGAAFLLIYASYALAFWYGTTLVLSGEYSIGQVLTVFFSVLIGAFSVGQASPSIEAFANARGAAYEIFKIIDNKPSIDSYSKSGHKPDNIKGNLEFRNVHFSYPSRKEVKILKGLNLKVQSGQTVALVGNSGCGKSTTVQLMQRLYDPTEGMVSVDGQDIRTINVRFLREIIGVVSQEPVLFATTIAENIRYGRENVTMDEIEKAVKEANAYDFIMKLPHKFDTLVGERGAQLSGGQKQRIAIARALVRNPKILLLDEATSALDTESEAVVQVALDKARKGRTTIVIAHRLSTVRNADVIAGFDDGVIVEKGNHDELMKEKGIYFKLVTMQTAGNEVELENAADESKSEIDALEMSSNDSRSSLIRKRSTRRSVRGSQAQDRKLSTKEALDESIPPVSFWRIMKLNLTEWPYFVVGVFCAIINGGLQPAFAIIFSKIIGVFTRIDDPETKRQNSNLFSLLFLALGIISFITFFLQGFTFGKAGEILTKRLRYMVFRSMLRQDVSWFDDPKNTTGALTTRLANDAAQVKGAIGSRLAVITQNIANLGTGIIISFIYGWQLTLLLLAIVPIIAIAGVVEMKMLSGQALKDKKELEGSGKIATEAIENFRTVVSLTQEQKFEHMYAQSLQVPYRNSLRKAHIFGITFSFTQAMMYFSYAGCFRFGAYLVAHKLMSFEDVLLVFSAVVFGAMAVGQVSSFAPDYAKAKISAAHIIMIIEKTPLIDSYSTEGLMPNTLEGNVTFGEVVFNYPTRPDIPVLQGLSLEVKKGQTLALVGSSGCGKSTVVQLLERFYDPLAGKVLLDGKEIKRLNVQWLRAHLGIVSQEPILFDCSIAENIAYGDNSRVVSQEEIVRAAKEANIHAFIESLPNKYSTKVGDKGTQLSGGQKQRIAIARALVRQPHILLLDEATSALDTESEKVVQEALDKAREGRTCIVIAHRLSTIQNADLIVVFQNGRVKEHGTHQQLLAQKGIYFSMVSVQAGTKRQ

Row | SMILES | Pgp liability MDR1 Er
1 | C[C@H]1C[C@H]2CSC(N)=N[C@@]2(c2nc(NC(=O)c3ccc(OC(F)F)cn3)cs2)CO1 [Comparator 1] | 7.1

Target: BACE1 (Homo sapiens (Human), UniProt P56817)
Sequence (P56817 46-457): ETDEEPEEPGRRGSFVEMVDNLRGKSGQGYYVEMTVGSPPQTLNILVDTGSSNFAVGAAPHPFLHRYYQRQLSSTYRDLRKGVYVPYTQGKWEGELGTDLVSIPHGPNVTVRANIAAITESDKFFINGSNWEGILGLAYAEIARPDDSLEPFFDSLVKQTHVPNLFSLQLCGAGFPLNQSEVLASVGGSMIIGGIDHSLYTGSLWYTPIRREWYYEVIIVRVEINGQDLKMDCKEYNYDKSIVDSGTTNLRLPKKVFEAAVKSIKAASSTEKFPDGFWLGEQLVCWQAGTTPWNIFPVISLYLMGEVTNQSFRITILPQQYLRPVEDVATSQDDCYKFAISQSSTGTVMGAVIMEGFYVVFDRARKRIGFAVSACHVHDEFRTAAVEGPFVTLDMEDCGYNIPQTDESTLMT
Assay: BACE1 Cell-Free Assay (fluorescence polarization)
Type: biochemical
Details: geometric mean of 2-4 determinations unless otherwise indicated (b: ≧5; c: single determination); read-out: BACE1 Cell-free Assay IC50

Row | SMILES | IC50 [µM]
2 | C[C@H]1C[C@H]2CSC(N)=N[C@@]2(c2nc(NC(=O)c3ccc(OC(F)F)nc3)cs2)CO1 [Example 48, N-{2-[(4aR,6S,8aR)-2-amino-6-methyl-4,4a,5,6-tetrahydropyrano[3,4-d][1,3]thiazin-8a(8H)-yl]-1,3-thiazol-4-yl}-6-(difluoromethoxy)pyridine-3-carboxamide] | 0.232
3 | C[C@H]1C[C@H]2CSC(N)=N[C@@]2(c2nc(NC(=O)c3coc(C(F)(F)F)n3)cs2)CO1 [Example 50, N-{2-[(4aR,6S,8aR)-2-amino-6-methyl-4,4a,5,6-tetrahydropyrano[3,4-d][1,3]thiazin-8a(8H)-yl]-1,3-thiazol-4-yl}-2-(trifluoromethyl)-1,3-oxazole-4-carboxamide] | 0.189
4 | C[C@H]1C[C@H]2CSC(N)=N[C@@]2(c2nc(NC(=O)c3ccc(OCF)cn3)cs2)CO1 [Example 26, N-{2-[(4aR,6S,8aR)-2-amino-6-methyl-4,4a,5,6-tetrahydropyrano[3,4-d][1,3]thiazin-8a(8H)-yl]-1,3-thiazol-4-yl}-5-(fluoromethoxy)pyridine-2-carboxamide] | 0.068
5 | C[C@H]1C[C@H]2CSC(N)=N[C@@]2(c2nc(NC(=O)c3ncn(C)n3)cs2)CO1 [Example 43, N-{2-[(4aR,6S,8aR)-2-amino-6-methyl-4,4a,5,6-tetrahydropyrano[3,4-d][1,3]thiazin-8a(8H)-yl]-1,3-thiazol-4-yl}-1-methyl-1H-1,2,4-triazole-3-carboxamide, trifluoroacetate salt] | 0.435
6 | C[C@H]1C[C@H]2CSC(N)=N[C@@]2(c2nc(NC(=O)c3ccc(C#N)cn3)cs2)CO1 [Example 5, N-{2-[(4aR,6S,8aR)-2-amino-6-methyl-4,4a,5,6-tetrahydropyrano[3,4-d][1,3]thiazin-8a(8H)-yl]-1,3-thiazol-4-yl}-5-cyanopyridine-2-carboxamide] | 0.022
7 | C[C@H]1C[C@H]2CSC(N)=N[C@@]2(c2nc(NC(=O)c3cccnn3)cs2)CO1 [Example 30, N-{2-[(4aR,6S,8aR)-2-amino-6-methyl-4,4a,5,6-tetrahydropyrano[3,4-d][1,3]thiazin-8a(8H)-yl]-1,3-thiazol-4-yl}pyridazine-3-carboxamide] | 2.16
8 | Cc1nc(C(=O)Nc2csc([C@]34CO[C@@H](C)C[C@H]3CSC(N)=N4)n2)c(C(F)(F)F)o1 [Example 38, N-{2-[(4aR,6S,8aR)-2-amino-6-methyl-4,4a,5,6-tetrahydropyrano[3,4-d][1,3]thiazin-8a(8H)-yl]-1,3-thiazol-4-yl}-2-methyl-5-(trifluoromethyl)-1,3-oxazole-4-carboxamide, trifluoroacetate salt] | 0.145
9 | C[C@H]1C[C@H]2CSC(N)=N[C@@]2(c2nc(NC(=O)c3ccc(OC(C)(F)F)cn3)cs2)CO1 [Example 44, N-{2-[(4aR,6S,8aR)-2-amino-6-methyl-4,4a,5,6-tetrahydropyrano[3,4-d][1,3]thiazin-8a(8H)-yl]-1,3-thiazol-4-yl}-5-(1,1-difluoroethoxy)pyridine-2-carboxamide] | 0.185
10 | COc1cnc(C(=O)Nc2csc([C@]34CO[C@@H](C)C[C@H]3CSC(N)=N4)n2)cn1 [Example 10, N-{2-[(4aR,6S,8aR)-2-amino-6-methyl-4,4a,5,6-tetrahydropyrano[3,4-d][1,3]thiazin-8a(8H)-yl]-1,3-thiazol-4-yl}-5-methoxypyrazine-2-carboxamide] | 0.536
11 | Cc1cc(C(=O)Nc2csc([C@]34CO[C@@H](C)C[C@H]3CSC(N)=N4)n2)n(C)n1 [Example 41, N-{2-[(4aR,6S,8aR)-2-amino-6-methyl-4,4a,5,6-tetrahydropyrano[3,4-d][1,3]thiazin-8a(8H)-yl]-1,3-thiazol-4-yl}-1,3-dimethyl-1H-pyrazole-5-carboxamide, trifluoroacetate salt] | 0.364
12 | C[C@H]1C[C@H]2CSC(N)=N[C@@]2(c2nc(NC(=O)c3cnc(CF)cn3)cs2)CO1 [Example 11, N-{2-[(4aR,6S,8aR)-2-amino-6-methyl-4,4a,5,6-tetrahydropyrano[3,4-d][1,3]thiazin-8a(8H)-yl]-1,3-thiazol-4-yl}-5-(fluoromethyl)pyrazine-2-carboxamide] | 0.315

Now from value to molecule:

Row | IC50 [µM] | SMILES
13 | 0.002 | Cc1cn(C(F)F)nc1C(=O)Nc1csc([C@]23CO[C@@H](C)C[C@H]2CSC(N)=N3)n1 [Example 96, N-{2-[(4aR,6S,8aR)-2-amino-6-methyl-4,4a,5,6-tetrahydropyrano[3,4-d][1,3]thiazin-8a(8H)-yl]-1,3-thiazol-4-yl}-1-(difluoromethyl)-4-methyl-1H-pyrazole-3-carboxamide]
14 | 0.012 | Cc1oc(CF)nc1C(=O)Nc1csc([C@]23CO[C@@H](C)C[C@H]2CSC(N)=N3)n1 [Example 102, N-{2-[(4aR,6S,8aR)-2-amino-6-methyl-4,4a,5,6-tetrahydropyrano[3,4-d][1,3]thiazin-8a(8H)-yl]-1,3-thiazol-4-yl}-2-(fluoromethyl)-5-methyl-1,3-oxazole-4-carboxamide]
15 | 0.447 | C[C@H]1C[C@H]2CSC(N)=N[C@@]2(c2nc(NC(=O)c3ccc(OCC#N)cn3)cs2)CO1 [Example 101, N-{2-[(4aR,6S,8aR)-2-amino-6-methyl-4,4a,5,6-tetrahydropyrano[3,4-d][1,3]thiazin-8a(8H)-yl]-1,3-thiazol-4-yl}-5-(cyanomethoxy)pyridine-2-carboxamide]
16 | 0.098 | Cc1noc(C(=O)Nc2csc([C@]34CO[C@@H](C)C[C@H]3CSC(N)=N4)n2)n1 [Example 51, N-{2-[(4aR,6S,8aR)-2-amino-6-methyl-4,4a,5,6-tetrahydropyrano[3,4-d][1,3]thiazin-8a(8H)-yl]-1,3-thiazol-4-yl}-3-methyl-1,2,4-oxadiazole-5-carboxamide]
17 | 0.215 | C[C@H]1C[C@H]2CSC(N)=N[C@@]2(c2nc(NC(=O)c3coc(CC(F)(F)F)n3)cs2)CO1 [Example 91, N-{2-[(4aR,6S,8aR)-2-amino-6-methyl-4,4a,5,6-tetrahydropyrano[3,4-d][1,3]thiazin-8a(8H)-yl]-1,3-thiazol-4-yl}-2-(2,2,2-trifluoroethyl)-1,3-oxazole-4-carboxamide]
18 | 2.62 | Cc1cc(C(=O)Nc2csc([C@]34CO[C@@H](C)C[C@H]3CSC(N)=N4)n2)no1 [Example 64, N-{2-[(4aR,6S,8aR)-2-amino-6-methyl-4,4a,5,6-tetrahydropyrano[3,4-d][1,3]thiazin-8a(8H)-yl]-1,3-thiazol-4-yl}-5-methyl-1,2-oxazole-3-carboxamide, trifluoroacetate salt]
19 | 0.372 | C[C@H](F)COc1cnc(C(=O)Nc2csc([C@]34CO[C@@H](C)C[C@H]3CSC(N)=N4)n2)cn1 [Example 57, N-{2-[(4aR,6S,8aR)-2-amino-6-methyl-4,4a,5,6-tetrahydropyrano[3,4-d][1,3]thiazin-8a(8H)-yl]-1,3-thiazol-4-yl}-5-{[(2S)-2-fluoropropyl]oxy}pyrazine-2-carboxamide]
20 | 0.36 | C[C@@H](F)COc1cnc(C(=O)Nc2csc([C@]34CO[C@@H](C)C[C@H]3CSC(N)=N4)n2)cn1 [Example 56, N-{2-[(4aR,6S,8aR)-2-amino-6-methyl-4,4a,5,6-tetrahydropyrano[3,4-d][1,3]thiazin-8a(8H)-yl]-1,3-thiazol-4-yl}-5-{[(2R)-2-fluoropropyl]oxy}pyrazine-2-carboxamide]
21 | 3.38 | C[C@H]1C[C@H]2CSC(N)=N[C@@]2(c2nc(NC(=O)c3cc(Cl)n(C)n3)cs2)CO1 [Example 81, N-{2-[(4aR,6S,8aR)-2-amino-6-methyl-4,4a,5,6-tetrahydropyrano[3,4-d][1,3]thiazin-8a(8H)-yl]-1,3-thiazol-4-yl}-5-chloro-1-methyl-1H-pyrazole-3-carboxamide]
22 | 0.075 | C[C@H]1C[C@H]2CSC(N)=N[C@@]2(c2nc(NC(=O)c3nc(C(F)F)co3)cs2)CO1 [Example 95, N-{2-[(4aR,6S,8aR)-2-amino-6-methyl-4,4a,5,6-tetrahydropyrano[3,4-d][1,3]thiazin-8a(8H)-yl]-1,3-thiazol-4-yl}-4-(difluoromethyl)-1,3-oxazole-2-carboxamide]
23 | 0.085 | C[C@H]1C[C@H]2CSC(N)=N[C@@]2(c2nc(NC(=O)C34CC(C3)C4)cs2)CO1 [Example 105, N-{2-[(4aR,6S,8aR)-2-amino-6-methyl-4,4a,5,6-tetrahydropyrano[3,4-d][1,3]thiazin-8a(8H)-yl]-1,3-thiazol-4-yl}bicyclo[1.1.1]pentane-1-carboxamide]
24 | 0.091 | Cc1nc(C(=O)Nc2csc([C@]34CO[C@@H](C)C[C@H]3CSC(N)=N4)n2)no1 [Example 52, N-{2-[(4aR,6S,8aR)-2-amino-6-methyl-4,4a,5,6-tetrahydropyrano[3,4-d][1,3]thiazin-8a(8H)-yl]-1,3-thiazol-4-yl}-5-methyl-1,2,4-oxadiazole-3-carboxamide]

Same assay, conditions: read-out: BACE1 Cell-free Assay IC50

Row | SMILES | IC50 [µM]
25 | C[C@H]1C[C@H]2CSC(N)=N[C@@]2(c2nc(NC(=O)c3cnn(C)n3)cs2)CO1 [Example 40, N-{2-[(4aR,6S,8aR)-2-amino-6-methyl-4,4a,5,6-tetrahydropyrano[3,4-d][1,3]thiazin-8a(8H)-yl]-1,3-thiazol-4-yl}-2-methyl-2H-1,2,3-triazole-4-carboxamide, trifluoroacetate salt] | 0.134

Test system: not listed separately
Assay: Aniline structural alert
Details: not given

Row | SMILES | Aniline Structural Alert
26 | C[C@H]1C[C@H]2CSC(N)=N[C@@]2(c2nc(NC(=O)c3ccc(OC(F)F)cn3)cs2)CO1 [Comparator 1] | No

Test system: not listed separately
Assay: pKa
Type: physicochemical
Details: Measurement determined at Analyza

Row | SMILES | pKa
27 | C[C@H]1C[C@H]2CSC(N)=N[C@@]2(c2nc(NC(=O)c3ccc(OC(F)F)cn3)cs2)CO1 [Comparator 1] | 7.0
